Measurements published in patent US7091352B2, “Compounds substituted with bicyclic amino groups” (priority 2001, dated 2006).
Read-outs that look alike come from different tables or passages of the source.

Experiments:
TNFα production = experiment: Inhibition of the production of TNFα in vitro in human whole blood (LPS stimulation, ELISA); type: cell-based; conditions: read-out: Inhibitory Effect on TNFα Production IC50
Experimental: (§1) This test was performed according to the method of Hartman, et al. [D. A. Hartman, S. J. Ochalski and R. P. Carlson; The effects of anti-inflammatory and antiallergic drugs on cytokine release after stimulation of human whole blood by lipopolysaccharide and zymosan A: Inflamm. Res., 44, 269 (1995)].
(§2) Peripheral blood samples were collected in the presence of heparin from healthy adult volunteers. 1000 μl of whole blood were added to an Eppendorf tube to which 2 μl of a dimethyl sulfoxide solution of the test compound had been added in advance, after which 10 μl of lipopolysaccharide (E. coli 026: B6 origin, Difco) were added as a stimulant (final concentration of said lipopolysaccharide: 10 μg/ml). This was mixed well and then incubated for 6 hours at 37° C. in the presence of 5% CO2. At the end of the incubation, the mixture was cooled to 4° C. to stop the reaction, followed immediately by centrifuging for 5 minutes at 14,000 rpm to separate and collect the supernatant plasma. The IL-1β and TNFα produced and released into the plasma were measured using commercially available enzyme immunoassay (ELISA) kits [Cayman (IL-1β) and Genzyme (TNFα)]. […] The inhibitory effect [IC50 (μM)] on the production of IL-1β and TNFα was determined by the method of least squares from the amounts of the cytokines produced in the presence and absence of the test compound.

IL-1β production = experiment: Inhibition of the production of IL-1β in vitro in human whole blood (LPS stimulation, ELISA); type: cell-based; conditions: lipopolysaccharide 10 μg/ml, 6 hours at 37° C., plasma ELISA, read-out: Inhibitory Effect on IL-1β Production IC50
Experimental: as §1, §2

SMILES | IC50 (TNFα production; human whole blood, lipopolysaccharide 10 μg/ml, 6 hours at 37° C., plasma ELISA) | IC50 (IL-1β production) | IC50 (TNFα production; Homo sapiens, 6 h)
OC1(c2n[nH]c(-c3ccc(F)cc3)c2-c2ccncc2)CCN2CCCC2C1 (racemic) [Example 2, (±)-5-(4-Fluorophenyl)-3-(7-hydroxy-1,2,3,5,6,7,8,8a-octahydroindolizin-7-yl)-4-(pyridin-4-yl)pyrazole] | 70 nM | 35 nM | 
CC1C[C@H]2C=C(c3n[nH]c(-c4ccc(F)cc4)c3-c3ccncc3)CCN2C1 (stereo partly drawn) [Example 12, 5-(4-Fluorophenyl)-3-[(8aS)-2-methyl-1,2,3,5,6,8a-hexahydroindolizin-7-yl]-4-(pyridin-4-yl)pyrazole] |  |  | 2.6 nM
